This is an account of results in US8703811B2, “Small molecule inhibitors of Plasmodium falciparum dihydroorotate dehydrogenase” (Genzyme Corporation, priority 2008, dated 2014).

In one assay the target is pbDHODH (Plasmodium berghei, UniProt A0A509AEH5). The experiment in a line: DCIP assay, pbDHODH. The assay is classed as biochemical, P. berghei. Particulars: 200 μM L-DHO, 18 μM CoQD, 100 μM DCIP, 20 nM enzyme. From the text:
(§1) Type 2 DHODH activity was monitored with either the direct assay measuring the formation of orotate or via a chromogen reduction assay using DCIP. Although the extinction coefficient and absorption wavelength are preferable for the chromogen reduction assay, the inorganic electron acceptor DCIP can be utilized by DHODH as the final electron acceptor in lieu of CoQn when the endogenous substrate is at a low concentration. As such, the direct assay was used to measure the binding affinity of pfDHODH to CoQD and L-DHO. The enzymatic reaction was performed by varying the L-DHO concentration (1-400 μM) or CoQD concentration (1-200 μM) while keeping the other substrate constant and in excess. The formation of orotate was measured continuously at 296 nm (ε296=4.3 mM^−1 cm^−1). Inhibition of DHODH by small molecules was evaluated using the chromogen based assay with a final substrate concentration of 200 μM L-DHO, 18 μM CoQD, and 100 μM DCIP, unless otherwise noted. The reduction of DCIP was monitored at 600 nm (ε600=18.8 mM^−1 cm^−1).
(§2) Substrate specificity and enzyme inhibition data was analyzed with GraphPad Prism Version 4 for Windows (GraphPad Software). Kinetic constants were calculated by non-linear regression fitting of the data to the Michaelis-Menten equation [36]. IC50 values were determined by non-linear regression fitting of the data to Equation 1: […]

The next assay relates to P. falciparum HB3. In words: Inhibition of in vitro P. falciparum culture, [3H]-hypoxanthine uptake, HB3. The assay is classed as cell-based. Particulars: Plasmodium falciparum, HB3, Erythrocyte; [3H]-hypoxanthine uptake by parasite infected erythrocytes; read-out: HB3 IC50. On the procedure:
(§3) P. falciparum strains D10, 3D7, HB3, and Dd2 were obtained from the Malaria Research and Reference Reagent Resource Center (Manassas, Va.). The parasite strains were maintained in vitro by method of Trager and Jensen. The inhibition of P. falciparum growth in the presence of drug was assessed by the relative reduction of [^3H]-hypoxanthine uptake as previously described. Inhibition data were fitted to Equation 1 using non-linear regression analysis except that the relative velocity of parasite growth was substituted for the rate of product formation.

The target of a further assay is scDHODH (Saccharomyces cerevisiae (strain ATCC 204508 / S288c) (Baker's yeast), UniProt P28272). In words: DCIP assay with fumarate, scDHODH. The assay is classed as biochemical. Particulars: 115 μM fumarate in lieu of CoQD.
Chain of scDHODH (P28272 whole entry): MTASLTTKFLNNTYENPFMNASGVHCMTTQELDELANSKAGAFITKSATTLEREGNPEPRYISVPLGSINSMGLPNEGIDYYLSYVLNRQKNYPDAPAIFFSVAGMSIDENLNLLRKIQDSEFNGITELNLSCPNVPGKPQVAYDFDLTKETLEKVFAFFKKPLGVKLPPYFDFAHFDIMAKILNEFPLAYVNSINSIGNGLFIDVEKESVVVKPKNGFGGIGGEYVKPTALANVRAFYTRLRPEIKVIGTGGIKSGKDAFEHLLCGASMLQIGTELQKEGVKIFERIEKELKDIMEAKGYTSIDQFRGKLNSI
The next assay addresses pfDHODH (Plasmodium falciparum (isolate 3D7), UniProt Q08210). In words: pfDHODH activity with FeCy as electron acceptor. The settings on record: read-out: % Inhibition of Product Formation Rate with 50 μM Inhibitor, FeCy.
Another assay has as its system P. falciparum D10. In words: Inhibition of in vitro P. falciparum culture, [3H]-hypoxanthine uptake, D10. The assay is classed as cell-based. The settings on record: Plasmodium falciparum, D10, Erythrocyte; [3H]-hypoxanthine uptake by parasite infected erythrocytes; read-out: D10 IC50. On the procedure:
as §3

A further assay has as its target pvDHODH (Plasmodium vivax, UniProt A5K1N1). The experiment in a line: DCIP assay, pvDHODH. The assay is classed as biochemical, P. vivax. Particulars: 200 μM L-DHO, 18 μM CoQD, 100 μM DCIP, 20 nM enzyme.
Source text: as §1, §2

Assay [1] concerns P. falciparum D10-scDHODH. In words: Inhibition of transgenic D10-scDHODH parasites, [3H]-hypoxanthine uptake. The assay is classed as cell-based. As to the method: as §3
Transgenic parasites expressing scDHODH were generated as described by Painter et al. except that full length scDHODH was cloned directly into the pGem3Z vector without a GFP tag. The resultant plasmid was transfected into ring stages of P. falciparum D10 by electroporation and maintained in culture using standard methods under the selection of WR99210.

Chain of pvDHODH (A5K1N1 1-572): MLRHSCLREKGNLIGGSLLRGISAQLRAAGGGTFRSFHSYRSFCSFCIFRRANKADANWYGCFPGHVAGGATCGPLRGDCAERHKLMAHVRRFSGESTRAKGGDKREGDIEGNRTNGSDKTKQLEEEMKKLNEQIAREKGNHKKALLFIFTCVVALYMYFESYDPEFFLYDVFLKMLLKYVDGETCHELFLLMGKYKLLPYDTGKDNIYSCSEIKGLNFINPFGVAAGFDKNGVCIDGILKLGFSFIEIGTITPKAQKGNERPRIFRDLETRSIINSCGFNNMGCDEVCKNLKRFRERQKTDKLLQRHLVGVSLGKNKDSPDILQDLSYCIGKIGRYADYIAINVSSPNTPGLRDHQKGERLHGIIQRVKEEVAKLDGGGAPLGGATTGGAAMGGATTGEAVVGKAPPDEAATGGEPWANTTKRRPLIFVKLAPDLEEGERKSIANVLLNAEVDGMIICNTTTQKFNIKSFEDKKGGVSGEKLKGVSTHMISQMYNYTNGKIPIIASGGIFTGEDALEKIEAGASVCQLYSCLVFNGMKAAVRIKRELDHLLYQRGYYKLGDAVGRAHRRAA
Chain of pfDHODH (Q08210 159-565 limits assumed): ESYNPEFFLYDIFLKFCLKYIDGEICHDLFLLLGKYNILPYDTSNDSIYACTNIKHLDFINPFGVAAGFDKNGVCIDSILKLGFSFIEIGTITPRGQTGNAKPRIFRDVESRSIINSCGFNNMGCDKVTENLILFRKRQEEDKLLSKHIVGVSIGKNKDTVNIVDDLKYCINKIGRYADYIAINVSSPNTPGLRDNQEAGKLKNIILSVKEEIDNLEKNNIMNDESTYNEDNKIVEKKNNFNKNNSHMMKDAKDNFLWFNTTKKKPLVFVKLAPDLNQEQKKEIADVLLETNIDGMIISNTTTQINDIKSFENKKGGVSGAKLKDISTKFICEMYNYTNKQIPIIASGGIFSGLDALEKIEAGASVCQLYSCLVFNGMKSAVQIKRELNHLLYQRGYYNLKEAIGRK
Chain of pbDHODH (A0A509AEH5 1-517): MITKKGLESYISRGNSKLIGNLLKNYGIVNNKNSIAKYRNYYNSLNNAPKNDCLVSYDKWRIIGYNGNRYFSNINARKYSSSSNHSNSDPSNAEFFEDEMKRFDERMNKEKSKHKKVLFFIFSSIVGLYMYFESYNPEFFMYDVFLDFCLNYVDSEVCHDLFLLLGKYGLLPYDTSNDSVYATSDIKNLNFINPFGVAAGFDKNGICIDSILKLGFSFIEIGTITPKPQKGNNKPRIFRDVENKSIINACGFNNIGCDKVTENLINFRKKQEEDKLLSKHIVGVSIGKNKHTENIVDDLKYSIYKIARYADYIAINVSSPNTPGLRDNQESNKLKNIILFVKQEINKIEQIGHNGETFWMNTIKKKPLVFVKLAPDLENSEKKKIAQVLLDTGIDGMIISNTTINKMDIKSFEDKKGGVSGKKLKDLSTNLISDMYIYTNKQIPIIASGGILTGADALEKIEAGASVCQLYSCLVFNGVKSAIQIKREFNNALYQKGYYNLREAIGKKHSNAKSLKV
Protocol for pfDHODH: Inhibitors of DHODH, as classified by the chromogen reduction assay, were also evaluated for activity using FeCy as an electron acceptor. A final concentration of 5-50 nM DHODH, 200 μM L-DHO and 100 μM FeCy in Buffer C was used in this assay. Both the reduction of FeCy and the formation of orotate was monitored at 420 nm (ε420=1 mM^−1 cm^−1) and 290 nm (ε280=2 mM^−1 cm^−1), respectively, noting that two molecules of FeCy are reduced for one molecule of L-DHO. As with the previous assays, the reaction was performed at 25° C. and initiated with the addition of enzyme.

The term IC50 denotes the point on the concentration scale where inhibition reaches its midpoint. For orientation: inhibition means how much of the control response was suppressed. Take `CCCNC(=O)c1ccc(-n2c(C)cc3ccccc32)s1` [Compound 1, 5-(2-methyl-1H-indol-1-yl)-N-propylthiophene-2-carboxamide]: the IC50 was 60 ± 7 nM at pbDHODH; 470 nM in the assay with P. falciparum HB3; above 10000 nM at scDHODH; 610 nM in the assay on P. falciparum D10; 420 ± 20 nM against pvDHODH; above 10000 nM in assay [1] (Plasmodium falciparum, D10, read-out: D10-scDHODH IC50). Moreover, the inhibition at 50 µM on pfDHODH was 31%. For the same compound, the “efficacy against D10-scDHODH strain compared to D10 parent strain” value in assay [1] (dose-effect curves, FIG. 5) is on record as “significantly reduced”.
